According to ChEMBL document CHEMBL3817842, “Structure-based optimization and derivatization of 2-substituted quinolone-based non-nucleoside HCV NS5B inhibitors with submicromolar cellular replicon potency” (Bioorg Med Chem Lett, 2016):
Active and inactive are the calls of the source. No cut-off for these calls is given here.

Legend:
[1] = Cytotoxicity against human Huh7.5.1 cells infected with human HCV genotype 2a JFH1 assessed as cell viability at 5 uM incubated for 72 hrs by MTT assay; format: cell-based, Huh-7; conditions: Huh7.5.1 cells infected with HCV genotype 2a JFH1, read-out: Activity
[2] = system: Hepatitis C virus; experiment: Antiviral activity against HCV genotype 2a JFH1 infected in human Huh7.5.1 cells at 5 uM incubated for 72 hrs by GFP based J399EAM HCV reporter assay; format: functional, Hepacivirus hominis; conditions: for inhibition at 5 µM: subtype 2a JFH1, Huh-7, 72 h; for inhibition: Hepacivirus hominis, subtype 2a JFH1, Huh-7
[3] = Cytotoxicity against human Huh7.5.1 cells infected with human HCV genotype 2a JFH1 incubated for 72 hrs by MTT assay; format: cell-based, Huh-7; conditions: Huh7.5.1 cells infected with HCV genotype 2a JFH1
[4] = system: Hepatitis C virus; experiment: Antiviral activity against HCV genotype 2a JFH1 infected in human Huh7.5.1 cells incubated for 72 hrs by GFP based J399EAM HCV reporter assay; format: functional, organism-based, Hepacivirus hominis; conditions: subtype 2a JFH1, Huh-7, 72 h
[5] = Selectivity index, ratio of CC50 for human Huh7.5.1 cells infected with human HCV genotype 2a JFH1 to EC50 for HCV genotype 2a JFH1 infected in human Huh7.5.1 cells; parameters: species or system Huh-7

EC50 [4] [µM]	SMILES	viability at 72 h, 5 µM [1] [%]	inhibition at 5 µM [2] [%]	CC50 at 72 h [3] [µM]	Ratio CC50/EC50 [5]	inhibition [2]
4.8	O=c1ccn(-c2ccc([N+](=O)[O-])c(C(F)(F)F)c2)c2ccn(Cc3ccc(Cl)cc3)c(=O)c12	75.6	65.7	10.6	2.2	
	Cc1ccc(C(=O)Nc2ccc(-n3ccc(=O)c4c(=O)n(Cc5ccc(Cl)cc5)ccc43)cc2)o1	88	42.6			
2.4	COc1cc2c(cc1F)c(=O)c(C(=O)OCc1ccc(Cl)cc1)c(C)n2Cc1ccc(Cl)cc1			> 40	>16.7	
	Cc1cc(NC(=O)c2ccccc2F)ccc1-n1ccc(=O)c2c(=O)n(Cc3ccc(Cl)cc3)ccc21	72.6	55.2			
2.02	CN1CCN(c2c(F)cc3c(=O)c(C(=O)OCc4ccc(Cl)cc4)c(-c4ccc(F)cc4)n(C4CC4)c3c2F)CC1			13.2	5.5	
6.4	Nc1ccc(-n2ccc(=O)c3c(=O)n(Cc4ccc(Cl)cc4)ccc32)cc1Cl	79.2	68	19.4	3	
	O=c1ccn(-c2ccc([N+](=O)[O-])cc2C(F)(F)F)c2ccn(Cc3ccc(Cl)cc3)c(=O)c12	88.2	58.6			
	O=C(Nc1ccc(F)cc1)Nc1ccc(-n2ccc(=O)c3c(=O)n(Cc4ccc(Cl)cc4)ccc32)c(C(F)(F)F)c1	75.4	33.4			
11.1	COCc1c(C(=O)OCc2ccc(Cl)cc2)c(=O)c2cc(F)c(OC)cc2n1Cc1ccc(Cl)cc1			> 40	>3.6	
7.2	Cc1c(C(=O)OCc2ccc(Cl)cc2)c(=O)c2cc(F)c(N3CCN(C)CC3)cc2n1Cc1ccc(Cl)cc1			33.1	4.6	
	Cc1ccc(Cn2ccc3c(c(=O)ccn3-c3ccc(N)c(C(F)(F)F)c3)c2=O)c(C)c1	99.8	51.7			
4.6	O=C(Nc1ccc(-n2ccc(=O)c3c(=O)n(Cc4ccc(Cl)cc4)ccc32)cc1)c1cc(F)ccc1F	46.1	95.7	6.4	1.4	
	Nc1ccc(-n2ccc(=O)c3c(=O)n(CC4CCCCC4)ccc32)cc1C(F)(F)F	100	7.7			
	Nc1ccc(-n2ccc(=O)c3c(=O)n(CC4CC=CC4)ccc32)cc1C(F)(F)F	100				inactive
	O=C(Nc1ccc(-n2ccc(=O)c3c(=O)n(Cc4ccc(Cl)cc4)ccc32)cc1)c1ncccc1Cl	68.6	52.3			
2.5	Nc1ccc(-n2ccc(=O)c3c(=O)n(Cc4ccc(Cl)cc4)ccc32)cc1C(F)(F)F	74.3	78.9	17.9	7.2	
4.9	COCc1c(C(=O)OCc2ccc(Cl)cc2)c(=O)c2cc(F)c(N3CCN(Cc4ccccc4)CC3)cc2n1Cc1ccc(Cl)cc1			> 40	>8.2	
0.4	COCc1c(C(=O)OCc2ccc(Cl)cc2)c(=O)c2cc(F)c(N3CCN(C)CC3)cc2n1Cc1ccc(Cl)cc1			4.3	10.8	
1.4	O=C(Nc1ccc(-n2ccc(=O)c3c(=O)n(Cc4ccc(Cl)cc4)ccc32)c(C(F)(F)F)c1)c1cc(F)ccc1F	38.4	98.2	1.5	1.1	
	Nc1ccc(-n2ccc(=O)c3c(=O)n(Cc4ccc(Cl)cc4)ccc32)c(C(F)(F)F)c1	84.8	43.8			
	Nc1ccc(-n2ccc(=O)c3c(=O)n(Cc4ccccc4)ccc32)cc1C(F)(F)F	96.8				inactive
	N#Cc1ccc(-n2ccc(=O)c3c(=O)n(Cc4ccc(Cl)cc4)ccc32)cc1C(F)(F)F	86.4				inactive
3.7	CCc1c(C(=O)OCc2ccc(Cl)cc2)c(=O)c2cc(F)c(OC)cc2n1Cc1ccc(Cl)cc1			26.8	7.2	
	Cc1cc(NC(=O)Nc2ccc(F)cc2)ccc1-n1ccc(=O)c2c(=O)n(Cc3ccc(Cl)cc3)ccc21	70.4	53.1			
	Cc1cc(N)ccc1-n1ccc(=O)c2c(=O)n(Cc3ccc(Cl)cc3)ccc21	91.6	52			
	O=C(Nc1ccc(-n2ccc(=O)c3c(=O)n(Cc4ccc(Cl)cc4)ccc32)cc1)c1ccccn1	88.7	41.7			
	O=C(Nc1ccc(F)cc1)Nc1ccc(-n2ccc(=O)c3c(=O)n(Cc4ccc(Cl)cc4)ccc32)cc1	98.4	18.8			
	Nc1ccc(-n2ccc(=O)c3c(=O)n(Cc4ccc(Cl)cc4)ccc32)cc1	94.6	39.8			
4.3	CN1CCN(c2cc3c(cc2F)c(=O)c(C(=O)OCc2ccc(Cl)cc2)cn3Cc2ccc(Cl)cc2)CC1			> 40	>9.3	
	Cc1ccc(Cn2ccc3c(c(=O)ccn3-c3ccc(N)c(C(F)(F)F)c3)c2=O)cc1	100	38.7			
